This is an account of results in ChEMBL document CHEMBL1127962, “Investigation of the effects of synthetic, non-cytotoxic immunophilin inhibitors on MDR” (1994).

Test [1] concerns the target Peptidyl-prolyl cis-trans isomerase FKBP1A (Homo sapiens) (UniProt P62942). The test is described as follows: In vitro inhibition of non-cytotoxic immunophilin FK506 binding protein activity.
Another test relates to KB. The test is described as follows: In vitro reversal of multidrug resistance (MDR) in human carcinoma cell line. Format: functional.

Sequence of Peptidyl-prolyl cis-trans isomerase FKBP1A (Homo sapiens) (P62942 whole entry): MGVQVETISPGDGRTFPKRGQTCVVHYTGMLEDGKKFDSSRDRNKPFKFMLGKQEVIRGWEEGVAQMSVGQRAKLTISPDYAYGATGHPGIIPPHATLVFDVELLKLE

Consider `C=CCOC/C=C/[C@@H](NC(=O)[C@H](Cc1ccccc1)NC(=O)C1CCCCN1CC(=O)c1cccc(OC)c1)C(C)C` (some centres undefined), for which the results for the Activity (in test [1]; in the test with KB) were 3 µM and 6 µM, respectively.

Take `C[C@H](/C=C/c1ccc(C(=O)C(=O)N2CCCC2C(=O)N[C@@H](CC2CCCCC2)C(=O)OC(C)(C)C)s1)CO` (some centres undefined): the Activity is over 100 µM in test [1] and 13 µM in the test with KB.

Regarding `CC(C)[C@H](NC(=O)[C@H](Cc1ccccc1)NC(=O)C1CCCCN1CC(=O)c1ccc2ccccc2c1)C(=O)OC(C)(C)C` (some centres undefined), the Activity in test [1] is 1 µM; in the test with KB, 5 µM.

As to `COC(=O)[C@H](Cc1ccccc1)NC(=O)[C@@H](NC(=O)[C@H](Cc1ccccc1)NC(=O)C1CCCCN1CC(=O)c1cccc(OC)c1)C(C)C` (some centres undefined), the Activity in test [1] is 1 µM; in the test with KB, over 50 µM.

As to `COc1cccc(C(=O)CN2CCCCC2C(=O)N[C@@H](Cc2ccccc2)C(=O)N[C@H](/C=C/COC(=O)C(F)(F)F)C(C)C)c1` (some centres undefined), the Activity in test [1] worked out at 1 µM; with KB it was 49 µM.

Regarding `COc1cccc(C(=O)CN2CCCCC2C(=O)N[C@@H](Cc2ccccc2)C(=O)N[C@H](/C=C/I)C(C)C)c1` (some centres undefined), the Activity in test [1] was found to be 2 µM; in the test on KB it was 30 µM.

Take `COc1cccc(C(=O)CN2CCCCC2C(=O)N[C@@H](Cc2ccccc2)C(=O)N[C@@H](CC(C)C)C(=O)OC(C)(C)C)c1` (some centres undefined): the Activity in test [1] was determined as 6 µM; in the test on KB it was 7 µM.

Turning to `C=CCC(CC(C)C[C@H](C)C[C@H](OC)C1OC(O)(C(=O)C(=O)N2CCCCC2)[C@H](C)C[C@@H]1OC)C(=O)C[C@H](O)[C@@H](C)[C@H](OC(C)=O)C(C)CC1CC[C@@H](O)C(OC)C1` (some centres undefined), the Activity came to 0.001 µM in test [1] and 5 µM with KB.

Regarding `C[C@H](/C=C/c1ccc(C(=O)C(=O)N2CCCC2C(=O)N[C@@H](Cc2ccccc2)C(=O)OC(C)(C)C)s1)CO` (some centres undefined), the Activity is 100 µM in test [1] and over 50 µM with KB.

As to `C#C[C@@H](NC(=O)[C@H](Cc1ccccc1)NC(=O)C1CCCCN1CC(=O)c1cccc(OC)c1)C(C)C` (some centres undefined), the Activity was determined as 5 µM in test [1] and 11 µM in the test with KB.

With `COc1cccc(C(=O)CN2CCCCC2C(=O)N[C@@H](Cc2ccccc2)C(=O)N[C@H](/C=C/COC(C)=O)C(C)C)c1` (some centres undefined), the values for the Activity (in test [1]; in the test with KB) were 2 µM and over 50 µM, respectively.

On to `COc1cccc(C(=O)CN2CCCCC2C(=O)N[C@@H](Cc2ccccc2)C(=O)OC(C)(C)C)c1` (some centres undefined), for which the Activity is 3 µM in test [1] and over 50 µM in the test with KB.

Regarding `COC(=O)C(=O)N1CCCC1C(=O)N[C@@H](Cc1ccccc1)C(=O)OC(C)(C)C` (some centres undefined), the Activity (in test [1]; with KB) was over 50 µM in each case.

`CCC(C)C[C@H](NC(=O)C1CCCCN1CC(=O)c1cccc(OC)c1)C(=O)OC(C)(C)C` (some centres undefined): the Activity is 8 µM in test [1] and over 50 µM in the test on KB.

On to `COC(=O)[C@H](Cc1ccccc1)NC(=O)[C@@H](NC(=O)[C@H](Cc1ccccc1)NC(=O)C1CCCCN1CC(=O)c1ccc2ccccc2c1)C(C)C` (some centres undefined), for which the Activity in test [1] was 0.3 µM; in the test on KB it was over 50 µM.

Regarding `COc1cccc(C(=O)CN2CCCCC2C(=O)N[C@@H](Cc2ccccc2)C(=O)N[C@H](C(=O)OC(C)(C)C)C(C)C)c1` (some centres undefined), the Activity came to 3 µM in test [1] and 6 µM with KB.

As to `C[C@H](/C=C/c1ccc(C(=O)C(=O)N2CCCC2C(=O)OC(C)(C)C)s1)CO` (some centres undefined), the Activity in test [1] is over 100 µM; in the test with KB, over 50 µM.
